Results as given in patent US11246929B2, “Combination of a protein kinase inhibitor and an additional chemotherapeutic agent” (Merck Patent GmbH, priority 2016, dated 2022).

Experiments:
Test in all cases: SRB growth inhibition, 93 cell lines panel
Assay type in all cases: cell-based
[1] = tested on: RD; details: Homo sapiens, muscle, read-out: GI50 of etoposide (±Compound 1)
Method: (§1) 90 μl of cells, after a 48-hour pre-growth period, were treated by mixing with 10 μl of the compound-containing media (resulting in a final DMSO concentration of 0.1%).
(§2) This is the drug concentration causing a 50% reduction compared to the net protein increase in control cells during the drug incubation period. In other words, G150 is IC50 corrected for time zero. […] TGI was calculated from Ti=Tz. […] It was calculated as 100×[(Ti−Tz)/Tz]=−50.

[2] = tested on: PC3; details: Homo sapiens, PC-3; PC3, prostate; read-out: GI50 of etoposide (±Compound 1)
Method: as §1, §2

[3] = tested on: J82; details: Homo sapiens; J82, bladder; read-out: GI50 of etoposide (±Compound 1)
Method: as §1, §2

[4] = tested on: JAR; details: placenta, read-out: GI50 of etoposide (±Compound 1)
Method: as §1, §2

[5] = tested on: COLO205; details: Homo sapiens, COLO 205; COLO205, colon; read-out: GI50 of etoposide (±Compound 1)
Method: as §1, §2

[6] = tested on: JIMT1; details: Homo sapiens, JIMT-1; JIMT1, breast; read-out: GI50 of etoposide (±Compound 1)
Method: as §1, §2

[7] = tested on: HS578T; details: Homo sapiens, Hs-578T, breast, read-out: GI50 of etoposide (±Compound 1)
Method: as §1, §2

[8] = tested on: PANC1; details: Homo sapiens, PANC-1; PANC1, pancreas; read-out: GI50 of etoposide (±Compound 1)
Method: as §1, §2

[9] = tested on: SKBR3; details: Homo sapiens, SK-BR-3; SKBR3, breast; read-out: GI50 of etoposide (±Compound 1)
Method: as §1, §2

[10] = tested on: WS15-NHL; details: hematological, read-out: GI50 of etoposide (±Compound 1)
Method: as §1, §2

[11] = tested on: BT20; details: Homo sapiens, BT-20; BT20, breast; read-out: GI50 of etoposide (±Compound 1)
Method: as §1, §2

[12] = tested on: 5637; details: 5637, bladder; read-out: GI50 of etoposide (±Compound 1)
Method: as §1, §2

[13] = tested on: MHHES1; details: Homo sapiens, MHH-ES-1; MHHES1, bone; read-out: GI50 of etoposide (±Compound 1)
Method: as §1, §2

[14] = tested on: A2780; details: Homo sapiens; A2780, ovary; read-out: GI50 of etoposide (±Compound 1)
Method: as §1, §2

[15] = tested on: L-363; details: Homo sapiens; L-363, hematological; read-out: GI50 of etoposide (±Compound 1)
Method: as §1, §2

[16] = tested on: MV4-11; details: Homo sapiens; MV4-11, hematological; read-out: GI50 of etoposide (±Compound 1)
Method: as §1, §2

[17] = tested on: NCIH358M; details: NCI-H358M, lung, read-out: GI50 of etoposide (±Compound 1)
Method: as §1, §2

[18] = tested on: SKMEL28; details: Homo sapiens, SK-MEL-28; SKMEL28, skin; read-out: GI50 of etoposide (±Compound 1)
Method: as §1, §2

[19] = tested on: HL-60; details: Homo sapiens; HL-60, hematological; read-out: GI50 of etoposide (±Compound 1)
Method: as §1, §2

[20] = tested on: 15M15C3; details: 15M15C3, bladder; read-out: GI50 of etoposide (±Compound 1)
Method: as §1, §2

[21] = tested on: OVCAR4; details: Homo sapiens, OVCAR-4; OVCAR4, ovary; read-out: GI50 of etoposide (±Compound 1)
Method: as §1, §2

[22] = tested on: SKOV3; details: Homo sapiens, SK-OV-3; SKOV3, ovary; read-out: GI50 of etoposide (±Compound 1)
Method: as §1, §2

[23] = tested on: MG63; details: Homo sapiens, MG-63; MG63, bone; read-out: GI50 of etoposide (±Compound 1)
Method: as §1, §2

[24] = tested on: 22RV1; details: Homo sapiens; 22RV1, prostate; read-out: GI50 of etoposide (±Compound 1)
Method: as §1, §2

[25] = tested on: NCIH82; details: Homo sapiens, NCI-H82; NCIH82, lung; read-out: GI50 of etoposide (±Compound 1)
Method: as §1, §2

[26] = tested on: HEK293; details: Homo sapiens; HEK293, kidney; read-out: GI50 of etoposide (±Compound 1)
Method: as §1, §2

[27] = tested on: MDAMB468; details: Homo sapiens, MDA-MB-468; MDAMB468, breast; read-out: GI50 of etoposide (±Compound 1)
Method: as §1, §2

[28] = tested on: SAOS2; details: Homo sapiens, SAOS-2; SAOS2, bone; read-out: GI50 of etoposide (±Compound 1)
Method: as §1, §2

[29] = tested on: CLS439; details: CLS439, bladder; read-out: GI50 of etoposide (±Compound 1)
Method: as §1, §2

[30] = tested on: C33A; details: Homo sapiens, C-33-A, cervix, read-out: GI50 of etoposide (±Compound 1)
Method: as §1, §2

[31] = tested on: MDAMB436; details: Homo sapiens, MDA-MB-436; MDAMB436, breast; read-out: GI50 of etoposide (±Compound 1)
Method: as §1, §2

COc1cc([C@@H]2c3cc4c(cc3[C@@H](O[C@@H]3O[C@@H]5CO[C@@H](C)O[C@H]5[C@H](O)[C@H]3O)[C@H]3COC(=O)[C@H]23)OCO4)cc(OC)c1O [Etoposide]
GI50 [1]: > 10000 nM | GI50 [2]: 5240 nM | GI50 [3]: 7930 nM | GI50 [4]: 116 nM | GI50 [5]: 1050 nM | GI50 [6]: 17700 nM | GI50 [7]: 874 nM | GI50 [8]: 1920 nM | GI50 [9]: 432 nM | GI50 [10]: 149 nM | GI50 [11]: 73 nM | GI50 [12]: 685 nM | GI50 [13]: 227 nM | GI50 [14]: 62 nM | GI50 [15]: 327 nM | GI50 [16]: 38 nM | GI50 [17]: 3330 nM | GI50 [18]: 1890 nM | GI50 [19]: 120 nM | GI50 [20]: 604 nM | GI50 [21]: > 10000 nM | GI50 [22]: 2990 nM | GI50 [23]: 1020 nM | GI50 [24]: 234 nM | GI50 [25]: 1150 nM | GI50 [26]: 190 nM | GI50 [27]: 1170 nM | GI50 [28]: 1460 nM | GI50 [29]: 965 nM | GI50 [30]: 393 nM | GI50 [31]: 378 nM
